Data set [1] in a line: Gelation of steroid drugs and alkaline-earth metal ion. Format: physicochemical. More on the design: key: L indicates that a liquid was formed; P indicates that a precipitate was formed; H indicates that a hydrogel was formed; L/H indicates that a mixture of a hydrogel and a liquid was formed; P->H indicates that a precipitate formed initially which converted to a hydrogel overnight. As to conditions: molar ratio steroid drug:metal ion 1:1. On the procedure:
The molar ratio of the steroid drug to the alkaline earth metal ion was 1:1 for all of the above samples.
Preparation of hydrogel. […] To form the DexP-hydrogel containing bupivacaine chlorhydrate (BPV), a DexP aqueous solution (100 mM) was added to a mixture of bupivacaine (10 mg/mL; approx. 30.8 mM) and Ca^2+ (100 mM) in a volume ratio of 1:2:1.

Data set [2] relates to C2C12 cells. The experiment in a line: Cell viability (MTS assay, Transwell). Format: cell-based. As to conditions: 24 h exposure, hydrogels [DexP]=25 mM. The procedure: The cytotoxicity of DexP-hydrogels ([DexP]:[Ca^2+]=2:1, 1:1, or 2:3), and free DexP were assessed by exposing C2C12 cells to them for 24 h in a Transwell® system where the gels were separated from the cells by a permeable membrane (FIG. 12) and measuring cell viability by MTS (3-(4,5-dimethylthiazol-2-yl)-5-(3-carboxymethoxyphenyl)-2-(4-sulfophenyl)-2H-tetrazolium) assay. […] The concentration of free DexP in the cell culture media incubated with the DexP-hydrogel ([DexP]:[Ca^2+]=2:1) for 24 h was 2.5 mg/mL (calculated from the release profile in FIG. 3), and the reduction of cell viability in that group was similar to that from 2.5 mg/mL of free DexP (p=0.31, p<0.005 compared to untreated cells). 25 mM DexP-hydrogels with the ratio [DexP]:[Ca^2+]=1:1 were used in subsequent experiments.
Cell viability. In vitro cell viability in the presence of DexP hydrogels was investigated in C2C12 cells (American Type Culture Collection, Manassas, Va.). In brief, C2C12 cells were grown and maintained in DMEM with 20% FBS and 1% Penicillin Streptomycin (Invitrogen, Waltham, Mass.) at 37° C. in 5% CO2. Cells were seeded into the lower chamber of 24-well Transwell® plates (Costar 3470, pore size 0.4 micrometers, Corning Incorporated, Corning, N.Y.) at 50,000 cells/mL in DMEM with 2% horse serum and 1% penicillin streptomycin and incubated for 14 days to allow differentiation into myotubes. […]
For orientation: Tetrazolium assays rely on reduction of a dye to a coloured formazan, in cell work by metabolically active cells.

Data set [3] deals with sciatic nerve and surrounding tissues. The experiment in a line: Histology: myotoxicity and inflammation scores. Format: in vivo, rats. Particulars: for Inflammation (range 0-4) / Myotoxicity (range 0-6): median with 25th and 75th percentiles, bupivacaine 5.0 mg/mL. An excerpt:
4 or 14 days after injection (n=6 at each time point), the sciatic nerve and surrounding tissues were harvested and processed for histology by hematoxylin-eosin staining (FIG. 6, Table 2). Overall, tissue reaction to all formulations was relatively benign.
Histology. Rats were euthanized by carbon dioxide 4 days or 14 days after injection. The nerve and surrounding tissue were harvested and underwent standard procedures to produce hematoxylin and eosin-stained slides. The samples were scored for inflammation (0-4) and myotoxicity (0-6). The inflammation score was a subjective quantification of severity, where 0 was normal and 4 was severe inflammation. The myotoxicity score was determined by the nuclear internalization and regeneration of myocytes, two representative characteristics of local anesthetics myotoxicity. Nuclear internalization was characterized by myocytes having nuclei located away from its usual location at the periphery of the cell. Regeneration was characterized by the presence of shrunken myocytes with basophilic cytoplasm. The scoring scale was as follows: 0=normal; 1=per fascicular internalization; 2=deep internalization (>5 cell layers); 3=perifascicular regeneration; 4=deep tissue regeneration (>5 cell layers); 5=hemefascicular regeneration; 6=holofascicular regeneration.

Data set [4] has as its system sciatic nerve. The experiment in a line: Sciatic nerve blockade, sensory (modified hotplate test). Format: in vivo, rats. As to conditions: 0.3 mL at the sciatic nerve; bupivacaine 5 mg/mL (15.4 mM); DexP 25 mM where present; mean+/−SD. On the procedure: Sciatic nerve blockade. Under brief isoflurane-oxygen anesthesia, the animals were injected with 0.3 mL of test material using a 23 G needle, which was introduced postero-medial to the greater trochanter until contact with bone.
Sensory nerve block was assessed by a modified hotplate test, as reported previously. The plantar surface of the rat's hind paw was placed on a pre-heated hot plate at 56° C. The time (termed thermal latency) that the animal would leave its hindpaw on the hotplate was recorded. Longer latencies reflected deeper degrees of local anesthesia. Pristine animals have latencies of about 2 s. After 12 s, the hindpaw was removed from the hotplate by the investigator to avoid tissue thermal injury or the development of hyperalgesia. Measurements were repeated 3 times at each timepoint. The duration of block was calculated as the time required for thermal latency to return to a value of 7 s from a higher value; 7 s is the midpoint between a baseline thermal latency of 2 seconds in adult rats, and a maximal latency of 12 s.

“Also recorded” adds a separate entry of the source. Counter-ions that a name gives are not always drawn.

`C[C@@H]1C[C@H]2[C@@H]3CCC4=CC(=O)C=C[C@]4(C)[C@@]3(F)[C@@H](O)C[C@]2(C)[C@@]1(O)C(=O)COP(=O)(O)O` [Dexamethasone phosphate, dexamethasone phosphate disodium]: the Gelation entry was “L” in data set [1] (Ba^2+ concentration 2.5); “L” in data set [1] (Ba^2+ concentration 6.25); “P−>H” in data set [1] (Ba^2+ concentration 12.5); “P−>H” in data set [1] (Ba^2+ concentration 25); “L/H” in data set [1] (Ca^2+ concentration 2.5); “L/H” in data set [1] (Ca^2+ concentration 6.25). In addition, the Gelation entry in data set [1] (Ca^2+ concentration 12.5) and in data set [1] (Ca^2+ concentration 25) was “H” throughout. Besides, the “Cell viability / cytotoxicity” value in data set [2] is listed as “concentration-dependent reduction of cell viability”.

On to `C[C@H]1C[C@H]2[C@@H]3CCC4=CC(=O)C=C[C@]4(C)[C@@]3(F)[C@@H](O)C[C@]2(C)[C@@]1(O)C(=O)COP(=O)(O)O` [Betamethasone phosphate, betamethasone phosphate disodium], for which the Gelation entry in data set [1] (Ba^2+ concentration 2.5) is recorded as “L”; in data set [1] (Ba^2+ concentration 6.25), “L”; in data set [1] (Ba^2+ concentration 12.5) it was “P−>H”; in data set [1] (Ba^2+ concentration 25) it was “P−>H”; in data set [1] (Ca^2+ concentration 2.5), “L/H”; in data set [1] (Ca^2+ concentration 6.25), “L/H”. For the same molecule, the Gelation result in data set [1] (Ca^2+ concentration 12.5) and in data set [1] (Ca^2+ concentration 25) was “H” throughout.

For the molecule `CCCCN1CCCCC1C(=O)Nc1c(C)cccc1C` (centres unmarked) [Bupivacaine solution, bupivacaine hydrochloride], the “Inflammation (range 0-4)” value is given as 2.0 (1.0-2.5) in data set [3] (4 days) and 1.0 (0.5-1.0) in data set [3] (14 days). Moreover, the “Myotoxicity (range 0-6)” value in data set [3] (4 days) is recorded as 3.0 (3.0-3.75); in data set [3] (14 days), 1.0 (0.5-1.0). The “Tissue reaction (histology, H&E)” value in data set [3] (day 4 after injection at the sciatic nerve, listed as free bupivacaine solution, hydrochloride) was “inflammatory infiltrate consisting primarily of macrophages with lymphocytes and occasional neutrophils; also recorded: evidence of myotoxicity”; in data set [3] (day 14 after injection at the sciatic nerve), “diminished compared to reaction at day 4, almost back to normal”. Moreover, in data set [4], the “Duration of sensory blockade” value was found to be 126 ± 38 min.

For hydrocortisone phosphate disodium, the Gelation entry in data set [1] (Ba^2+ concentration 2.5) is “L”; in data set [1] (Ba^2+ concentration 6.25) it was “L”; in data set [1] (Ba^2+ concentration 12.5) it was “P−>H”; in data set [1] (Ba^2+ concentration 25), “P−>H”; in data set [1] (Ca^2+ concentration 2.5) it was “L/H”; in data set [1] (Ca^2+ concentration 6.25), “L/H”. In addition, the Gelation entry in data set [1] (Ca^2+ concentration 12.5) and in data set [1] (Ca^2+ concentration 25) was “H” each time.
